{"source": "ChEMBL document CHEMBL1201862", "about": "“PubChem BioAssay data set” (2004)", "key": {"[1]": {"assay": "Counterscreen for […] of the human trace amine associated receptor 1 (TAAR1): Fluorescence-based cell-based high throughput dose response assay to identify nonselective Ga16 agonists.", "format": "functional"}, "[2]": {"biological_target": "T1, Trace amine-associated receptor 1 (Homo sapiens, UniProt Q96RJ0)", "T1 sequence (Q96RJ0 whole entry)": "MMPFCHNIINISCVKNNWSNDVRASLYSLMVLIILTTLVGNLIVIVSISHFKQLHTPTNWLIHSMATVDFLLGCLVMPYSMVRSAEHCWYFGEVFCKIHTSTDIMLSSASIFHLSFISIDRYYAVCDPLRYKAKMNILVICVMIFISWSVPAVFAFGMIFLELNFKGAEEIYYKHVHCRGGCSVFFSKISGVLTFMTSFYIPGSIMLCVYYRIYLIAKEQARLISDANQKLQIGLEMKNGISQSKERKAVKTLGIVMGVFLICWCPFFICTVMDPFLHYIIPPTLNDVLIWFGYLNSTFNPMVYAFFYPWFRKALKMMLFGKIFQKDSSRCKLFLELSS", "assay": "Counterscreen for antagonists of the human trace amine associated receptor 1 (hTAAR1): Fluorescence-based cell-based high throughput dose response assay to identify TAAR1 Agonists.", "format": "functional"}, "[3]": {"biological_target": "T1, Trace amine-associated receptor 1", "assay": "Fluorescence-based cell-based high throughput dose response assay to identify antagonists of the human trace amine associated receptor 1 (TAAR1).", "format": "functional"}, "[4]": {"assay": "Counterscreen for antagonists of the human trace amine associated receptor 1 (hTAAR1): Fluorescence-based cell-based high throughput dose response assay to identify nonselective Ga16 antagonists.", "format": "functional"}, "[5]": {"assay": "HGIII-sPLA2 enzyme inhibition potency – biochemical, QFRET, IC50, dose response (AID 743457);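 note: green fluorescence rise as the enzyme cleaves BODIPY PC-A2 in liposomes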"}, "[6]": {"assay": "mouse fibroblast viability loss – cell-based, cherry-pick samples, set 2, cytotoxicity control for T. cruzi growth inhibitor project, dose response (AID 651817)", "format": "functional", "conditions": "NIH3T3"}, "[7]": {"assay": "intracellular Trypanosoma cruzi inhibitors in host cells – cell-based, plate reader, cherry-pick samples, set 3, dose response (AID 651818);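 note: compounds incubated with infected cells for about four days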", "format": "functional"}, "A549": {"test_system": "A549", "assay": "viability loss in A549 cells – cell-based, plate reader, cherry-pick samples, cytotoxicity control, dose response (AID 687028)", "format": "functional", "conditions": "Homo sapiens"}, "[8]": {"assay": "general mammalian cell viability loss – inhibitor set, cherry-pick, set 2, cytotoxicity control for miR-122 modulator project, dose response (AID 720697)", "format": "functional, cell-based"}, "[9]": {"assay": "HeLa cell viability loss – 24 h, dry powder, set 2, cytotoxicity control, dose response (AID 651774)", "format": "functional, cell-based"}, "[10]": {"assay": "rescue of ΔF508 CFTR function, airway epithelium – human bronchial epithelial cells, plate reader, cherry-pick, two tests, dose response (AID 743267)", "format": "functional, cell-based"}, "[11]": {"biological_target": "Endoplasmic reticulum aminopeptidase 1 (Homo sapiens, UniProt Q9NZ08)", "sequence (Q9NZ08 whole entry)": "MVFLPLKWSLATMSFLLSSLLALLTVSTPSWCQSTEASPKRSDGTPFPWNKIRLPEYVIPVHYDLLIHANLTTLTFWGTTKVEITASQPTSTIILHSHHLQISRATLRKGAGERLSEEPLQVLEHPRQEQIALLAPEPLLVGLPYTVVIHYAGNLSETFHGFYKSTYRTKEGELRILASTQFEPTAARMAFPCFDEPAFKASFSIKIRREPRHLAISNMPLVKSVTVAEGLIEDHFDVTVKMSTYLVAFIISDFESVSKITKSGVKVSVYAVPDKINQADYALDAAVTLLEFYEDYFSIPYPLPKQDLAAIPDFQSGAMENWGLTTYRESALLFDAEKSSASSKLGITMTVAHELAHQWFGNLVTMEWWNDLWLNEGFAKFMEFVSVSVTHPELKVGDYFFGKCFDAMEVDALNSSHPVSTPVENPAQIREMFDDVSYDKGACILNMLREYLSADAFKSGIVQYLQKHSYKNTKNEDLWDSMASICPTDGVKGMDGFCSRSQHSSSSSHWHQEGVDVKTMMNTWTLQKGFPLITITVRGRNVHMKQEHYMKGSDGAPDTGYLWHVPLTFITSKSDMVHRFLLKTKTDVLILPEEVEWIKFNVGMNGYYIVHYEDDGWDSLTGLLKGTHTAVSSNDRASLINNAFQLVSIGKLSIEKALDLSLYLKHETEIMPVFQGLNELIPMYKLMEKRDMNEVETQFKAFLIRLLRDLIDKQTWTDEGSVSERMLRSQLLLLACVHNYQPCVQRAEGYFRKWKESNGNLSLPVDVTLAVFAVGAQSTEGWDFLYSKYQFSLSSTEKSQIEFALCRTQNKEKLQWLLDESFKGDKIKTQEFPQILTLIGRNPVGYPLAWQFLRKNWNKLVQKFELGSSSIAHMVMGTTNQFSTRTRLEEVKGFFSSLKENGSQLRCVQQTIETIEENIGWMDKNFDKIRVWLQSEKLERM", "assay": "inhibition of human ERAP1 enzyme activity – biochemical, cherry-pick, set 2, plate reader, dose response (AID 743314)"}, "[12]": {"test_system": "Streptococcus sp. 'group A'", "assay": "Streptococcus pyogenes SK(-)GAS viability under kanamycin – luminescence, BacTiterGlo, confirmation, counter-screen for streptokinase expression inhibitor project, dose response (AID 1900)", "format": "functional, organism-based"}, "Streptokinase A": {"biological_target": "T2, Streptokinase A (Streptococcus pyogenes serotype M1, UniProt P10520)", "T2 sequence (P10520 whole entry)": "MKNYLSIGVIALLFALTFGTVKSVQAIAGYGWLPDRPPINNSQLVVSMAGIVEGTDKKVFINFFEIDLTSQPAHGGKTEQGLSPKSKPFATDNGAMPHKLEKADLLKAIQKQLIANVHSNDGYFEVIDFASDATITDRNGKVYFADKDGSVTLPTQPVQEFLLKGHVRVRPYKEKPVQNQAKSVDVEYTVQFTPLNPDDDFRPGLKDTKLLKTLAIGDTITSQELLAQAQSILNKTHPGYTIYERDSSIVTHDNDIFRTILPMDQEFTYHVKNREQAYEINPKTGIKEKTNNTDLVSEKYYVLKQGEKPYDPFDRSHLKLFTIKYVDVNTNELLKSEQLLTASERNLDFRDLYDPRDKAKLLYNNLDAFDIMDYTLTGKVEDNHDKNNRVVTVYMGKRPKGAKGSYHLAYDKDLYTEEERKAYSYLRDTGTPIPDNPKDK", "assay": "viability-normalized secreted streptokinase activity reduction – plasminogen activation absorbance, OD405, dose response (AID 1914);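 note: secreted streptokinase activity via plasminogen activation per viability signal from cell pellet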", "format": "functional, Streptococcus pyogenes M1 GAS"}, "Streptococcus": {"test_system": "Streptococcus", "assay": "GAS UMAA2166 growth inhibition – luminescence, BacTiterGlo, counter-screen for streptokinase expression inhibitor project, dose response (AID 1915)", "format": "functional, organism-based", "conditions": "read-out: EC50"}, "[13]": {"biological_target": "Fructose-bisphosphate aldolase (Mycobacterium tuberculosis, UniProt P9WQA3)", "sequence (P9WQA3 whole entry)": "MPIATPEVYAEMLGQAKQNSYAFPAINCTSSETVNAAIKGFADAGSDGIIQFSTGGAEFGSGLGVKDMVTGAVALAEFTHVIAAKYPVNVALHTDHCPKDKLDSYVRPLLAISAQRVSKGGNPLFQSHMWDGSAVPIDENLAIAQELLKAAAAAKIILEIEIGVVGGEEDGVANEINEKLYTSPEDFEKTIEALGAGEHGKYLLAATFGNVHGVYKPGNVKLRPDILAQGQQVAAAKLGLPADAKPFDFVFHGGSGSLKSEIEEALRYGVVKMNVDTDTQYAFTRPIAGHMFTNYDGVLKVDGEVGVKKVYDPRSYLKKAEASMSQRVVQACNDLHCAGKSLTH", "assay": "Fluorescence-based biochemical high throughput dose response assay for inhibitors of the fructose-bisphosphate aldolase (FBA) of M. tuberculosis.", "format": "functional"}, "[14]": {"biological_target": "Voltage-gated inwardly rectifying potassium channel KCNH2 (Homo sapiens, UniProt Q12809)", "sequence (Q12809 whole entry)": "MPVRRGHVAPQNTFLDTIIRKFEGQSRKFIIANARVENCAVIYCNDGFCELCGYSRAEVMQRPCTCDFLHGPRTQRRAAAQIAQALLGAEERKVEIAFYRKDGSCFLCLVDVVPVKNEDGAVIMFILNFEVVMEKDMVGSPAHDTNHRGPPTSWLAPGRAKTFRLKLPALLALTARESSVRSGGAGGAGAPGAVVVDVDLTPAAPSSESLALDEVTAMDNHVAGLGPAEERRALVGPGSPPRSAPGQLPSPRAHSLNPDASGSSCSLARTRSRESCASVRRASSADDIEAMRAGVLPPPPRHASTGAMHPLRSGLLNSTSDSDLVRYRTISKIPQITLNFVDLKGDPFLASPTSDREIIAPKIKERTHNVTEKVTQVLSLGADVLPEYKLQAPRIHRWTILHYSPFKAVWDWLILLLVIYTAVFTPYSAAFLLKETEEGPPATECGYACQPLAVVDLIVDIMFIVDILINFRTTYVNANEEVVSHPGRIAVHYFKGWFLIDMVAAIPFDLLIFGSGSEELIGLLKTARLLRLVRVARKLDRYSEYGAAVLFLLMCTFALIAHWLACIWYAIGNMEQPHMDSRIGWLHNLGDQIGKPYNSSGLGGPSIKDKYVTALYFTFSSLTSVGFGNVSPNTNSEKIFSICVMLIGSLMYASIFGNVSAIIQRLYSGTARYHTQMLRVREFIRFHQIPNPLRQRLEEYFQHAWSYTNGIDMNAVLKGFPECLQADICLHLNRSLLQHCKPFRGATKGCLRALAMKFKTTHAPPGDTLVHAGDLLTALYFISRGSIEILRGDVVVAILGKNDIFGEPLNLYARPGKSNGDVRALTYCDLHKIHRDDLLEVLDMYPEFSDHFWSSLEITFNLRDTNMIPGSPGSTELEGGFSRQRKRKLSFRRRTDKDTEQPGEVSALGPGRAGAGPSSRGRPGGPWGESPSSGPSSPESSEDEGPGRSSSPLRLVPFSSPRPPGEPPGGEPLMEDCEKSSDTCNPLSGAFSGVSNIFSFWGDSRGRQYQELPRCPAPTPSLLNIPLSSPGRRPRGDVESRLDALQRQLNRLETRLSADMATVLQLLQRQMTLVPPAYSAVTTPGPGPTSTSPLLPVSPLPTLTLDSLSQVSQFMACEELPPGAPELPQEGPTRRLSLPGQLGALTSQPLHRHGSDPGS", "assay": "concentration-dependent hERG rescue from blockers – cell-based, thallium flux, dose response (AID 2121)", "format": "ADME"}}, "note": "The source made the active and inactive calls.", "data": [{"smiles": "O=[N+]([O-])c1ccc(-c2c(-c3ccccc3)ncc3cc(F)ccc23)cc1", "values": [{"measurement": "EC50", "setting": "[1]", "result": "> 29.9 µM (inactive)"}, {"measurement": "EC50", "setting": "[2]", "result": "> 29.9 µM (inactive)"}, {"measurement": "IC50", "setting": "[3]", "result": "4.77 µM (active)"}, {"measurement": "IC50", "setting": "[4]", "result": "> 29.9 µM (inactive)"}]}, {"smiles": "CCCCn1c(S)nnc1C12CC3CC(CC(C3)C1)C2", "values": [{"measurement": "IC50", "setting": "[5]", "result": "> 122 µM (inactive)"}]}, {"smiles": "Cc1ccc(S(=O)(=O)Nc2ccc3c(c2)CC(=O)N([C@H](C)CO)C[C@@H](C)[C@@H](CN(C)S(=O)(=O)c2ccc(Cl)cc2)O3)cc1", "values": [{"measurement": "AC50", "setting": "[6]", "result": "33.1 µM (active)"}, {"measurement": "AC50", "setting": "[7]", "result": "1.96 µM (active)"}]}, {"smiles": "Cc1ccc(NC(=O)c2cc(-c3cc(Cl)ccc3C)[nH]n2)cc1NS(C)(=O)=O", "values": [{"measurement": "AC50", "setting": "A549", "result": "23.8 µM (active)"}]}, {"smiles": "CC(=O)N1[C@H](CN(C(=O)c2ccc(F)cc2)C(C)C)[C@H](c2ccccc2)[C@@H]1CO", "values": [{"measurement": "AC50", "setting": "[8]", "result": "10.5 µM (active)"}]}, {"smiles": "CCc1ccc(C(=O)Nc2nnnn2CC)cc1", "values": [{"measurement": "AC50", "setting": "[9]", "result": "> 70 µM (inactive)"}]}, {"smiles": "COc1cccc(S(=O)(=O)N2C[C@@H]3N[C@H](C2)[C@@H]3c2ccc(-c3cccc(C)c3)cc2)c1", "values": [{"measurement": "AC50", "setting": "[10]", "result": "16 µM (active)"}]}, {"smiles": "CN1c2ccc(-c3ccc(C#N)cc3)cc2[C@@H]2[C@@H](CCN2C(=O)CC2CC2)[C@@H]1CO", "values": [{"measurement": "AC50", "setting": "[11]", "result": "19.8 µM (active)"}]}, {"smiles": "Sc1nc(-c2ccccc2)cn1/N=C/c1cccc2ccccc12", "values": [{"measurement": "EC50", "setting": "[12]", "result": "89.1 µM (active)"}, {"measurement": "EC50", "setting": "Streptokinase A", "result": "> 150 µM (not active)"}, {"measurement": "EC50", "setting": "Streptococcus", "result": "> 150 µM (not active)"}, {"measurement": "IC50", "setting": "[13]", "result": "> 9.99 µM (inactive)"}, {"measurement": "EC50", "setting": "[14]", "result": "0.7 µM (active)"}]}]}
